Measurements from PMC6138237, “Machine intelligence decrypts β-lapachone as an allosteric 5-lipoxygenase inhibitor” (Chemical Science, 2018).
Like-named read-outs stand apart in the source and are kept apart here.

Assays:
CHK2 = CHK2 (Homo sapiens, UniProt O96017); assay: ExpresS Diversity Kinase Profile, Cerep (LANCE): CHK2; format: biochemical
MAPKAPK2 = MAPKAPK2 (Homo sapiens, UniProt P49137); assay: ExpresS Diversity Kinase Profile, Cerep (LANCE): MAPKAPK2; format: biochemical
15-LO = 15-LO inhibition in intact human neutrophils; settings: read-out: IC50 (15-LO), without DTT
12-LO = biological target: T1, 12-LO (Homo sapiens, UniProt P18054); assay: 12-LO inhibition assay, Cerep (Method A, photometry); format: biochemical
T1 sequence (P18054 1-663): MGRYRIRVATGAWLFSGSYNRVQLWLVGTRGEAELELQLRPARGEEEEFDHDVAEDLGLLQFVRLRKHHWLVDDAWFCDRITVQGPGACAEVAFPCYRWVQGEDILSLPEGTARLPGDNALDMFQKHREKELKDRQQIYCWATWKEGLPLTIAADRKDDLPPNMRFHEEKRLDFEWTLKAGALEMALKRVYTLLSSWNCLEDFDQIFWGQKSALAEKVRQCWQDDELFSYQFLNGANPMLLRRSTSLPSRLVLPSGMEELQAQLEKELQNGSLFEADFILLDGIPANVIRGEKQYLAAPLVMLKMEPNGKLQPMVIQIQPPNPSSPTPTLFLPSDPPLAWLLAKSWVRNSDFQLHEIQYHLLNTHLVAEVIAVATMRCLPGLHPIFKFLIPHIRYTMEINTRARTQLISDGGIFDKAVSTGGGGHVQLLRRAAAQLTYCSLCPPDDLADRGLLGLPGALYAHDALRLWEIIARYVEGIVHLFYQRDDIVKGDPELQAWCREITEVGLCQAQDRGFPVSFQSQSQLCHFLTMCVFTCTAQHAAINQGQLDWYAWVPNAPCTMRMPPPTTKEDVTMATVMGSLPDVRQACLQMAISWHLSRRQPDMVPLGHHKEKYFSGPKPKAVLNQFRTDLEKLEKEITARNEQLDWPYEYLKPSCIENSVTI

TRPM8 = biological target: T2, TRPM8 (Homo sapiens, UniProt Q7Z2W7); assay: TRPM8 functional agonist assay, Cerep (intracellular Ca2+); format: cell-based; settings: TRPM8 (agonist), 150 µM
T2 construct: Cerep, SA (fee-for-service assay) printed G018533 (citation number 33 glued on)
T2 sequence (Q7Z2W7 whole entry): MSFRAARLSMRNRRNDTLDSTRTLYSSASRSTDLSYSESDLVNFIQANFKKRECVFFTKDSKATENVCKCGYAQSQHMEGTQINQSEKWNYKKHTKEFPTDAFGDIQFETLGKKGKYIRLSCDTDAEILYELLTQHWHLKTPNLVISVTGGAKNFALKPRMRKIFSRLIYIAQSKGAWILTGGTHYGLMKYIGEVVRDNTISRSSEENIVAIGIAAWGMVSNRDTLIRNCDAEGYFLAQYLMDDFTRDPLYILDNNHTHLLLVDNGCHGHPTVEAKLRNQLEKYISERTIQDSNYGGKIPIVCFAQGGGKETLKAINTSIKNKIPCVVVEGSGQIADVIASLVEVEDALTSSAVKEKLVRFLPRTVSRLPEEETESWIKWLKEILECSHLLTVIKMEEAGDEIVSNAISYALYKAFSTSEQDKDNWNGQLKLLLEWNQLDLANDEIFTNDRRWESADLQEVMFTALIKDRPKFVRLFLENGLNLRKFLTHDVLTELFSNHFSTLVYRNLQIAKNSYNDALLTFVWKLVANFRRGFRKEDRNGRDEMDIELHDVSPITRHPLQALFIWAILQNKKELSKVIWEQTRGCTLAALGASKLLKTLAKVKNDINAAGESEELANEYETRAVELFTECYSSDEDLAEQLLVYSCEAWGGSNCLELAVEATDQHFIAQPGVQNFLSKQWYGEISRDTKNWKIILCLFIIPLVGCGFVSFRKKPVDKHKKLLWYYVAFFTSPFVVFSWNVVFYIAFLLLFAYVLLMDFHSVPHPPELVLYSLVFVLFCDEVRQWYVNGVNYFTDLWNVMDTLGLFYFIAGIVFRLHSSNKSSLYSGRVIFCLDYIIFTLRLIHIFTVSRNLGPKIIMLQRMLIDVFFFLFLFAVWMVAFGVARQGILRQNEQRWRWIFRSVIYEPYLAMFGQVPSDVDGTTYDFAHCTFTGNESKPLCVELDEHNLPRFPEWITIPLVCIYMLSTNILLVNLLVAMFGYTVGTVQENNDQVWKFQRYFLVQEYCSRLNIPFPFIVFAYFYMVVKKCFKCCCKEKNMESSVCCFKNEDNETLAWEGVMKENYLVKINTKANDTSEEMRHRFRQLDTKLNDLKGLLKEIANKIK

EP4 = EP4 (Homo sapiens, UniProt P35408); assay: EP4 functional agonist assay, Cerep (cAMP, HTRF)
EP4, sequence (P35408 whole entry): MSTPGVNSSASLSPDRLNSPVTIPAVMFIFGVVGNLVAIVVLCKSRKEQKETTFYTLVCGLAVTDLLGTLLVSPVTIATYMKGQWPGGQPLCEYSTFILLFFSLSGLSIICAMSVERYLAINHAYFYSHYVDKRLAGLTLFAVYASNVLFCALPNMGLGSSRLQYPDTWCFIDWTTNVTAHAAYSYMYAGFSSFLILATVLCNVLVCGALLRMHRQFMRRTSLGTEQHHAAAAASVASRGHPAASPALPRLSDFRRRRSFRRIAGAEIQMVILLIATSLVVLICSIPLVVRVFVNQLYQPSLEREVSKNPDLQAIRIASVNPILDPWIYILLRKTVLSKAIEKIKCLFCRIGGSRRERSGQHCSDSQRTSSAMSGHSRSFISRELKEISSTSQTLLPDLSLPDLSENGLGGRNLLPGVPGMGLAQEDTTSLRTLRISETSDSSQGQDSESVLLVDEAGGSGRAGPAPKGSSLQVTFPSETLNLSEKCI

[1] = test system: Staphylococcus aureus ATCC 25923; assay: Minimum inhibitory concentration assay, Staphylococcus aureus; settings: concentrations up to 50 µM
TRPV1 = TRPV1 (Homo sapiens, UniProt Q8NER1); assay: TRPV1 functional agonist assay, Cerep (intracellular Ca2+); format: cell-based; settings: TRPV1 (agonist), 150 µM
[2] = Dynamic light scattering (colloidal aggregation); format: physicochemical; settings: for Count rate (kcps): 25 °C
ROCK1 = ROCK1 (Homo sapiens, UniProt Q13464); assay: ExpresS Diversity Kinase Profile, Cerep (LANCE): ROCK1; format: biochemical
ROCK1, sequence (Q13464 whole entry): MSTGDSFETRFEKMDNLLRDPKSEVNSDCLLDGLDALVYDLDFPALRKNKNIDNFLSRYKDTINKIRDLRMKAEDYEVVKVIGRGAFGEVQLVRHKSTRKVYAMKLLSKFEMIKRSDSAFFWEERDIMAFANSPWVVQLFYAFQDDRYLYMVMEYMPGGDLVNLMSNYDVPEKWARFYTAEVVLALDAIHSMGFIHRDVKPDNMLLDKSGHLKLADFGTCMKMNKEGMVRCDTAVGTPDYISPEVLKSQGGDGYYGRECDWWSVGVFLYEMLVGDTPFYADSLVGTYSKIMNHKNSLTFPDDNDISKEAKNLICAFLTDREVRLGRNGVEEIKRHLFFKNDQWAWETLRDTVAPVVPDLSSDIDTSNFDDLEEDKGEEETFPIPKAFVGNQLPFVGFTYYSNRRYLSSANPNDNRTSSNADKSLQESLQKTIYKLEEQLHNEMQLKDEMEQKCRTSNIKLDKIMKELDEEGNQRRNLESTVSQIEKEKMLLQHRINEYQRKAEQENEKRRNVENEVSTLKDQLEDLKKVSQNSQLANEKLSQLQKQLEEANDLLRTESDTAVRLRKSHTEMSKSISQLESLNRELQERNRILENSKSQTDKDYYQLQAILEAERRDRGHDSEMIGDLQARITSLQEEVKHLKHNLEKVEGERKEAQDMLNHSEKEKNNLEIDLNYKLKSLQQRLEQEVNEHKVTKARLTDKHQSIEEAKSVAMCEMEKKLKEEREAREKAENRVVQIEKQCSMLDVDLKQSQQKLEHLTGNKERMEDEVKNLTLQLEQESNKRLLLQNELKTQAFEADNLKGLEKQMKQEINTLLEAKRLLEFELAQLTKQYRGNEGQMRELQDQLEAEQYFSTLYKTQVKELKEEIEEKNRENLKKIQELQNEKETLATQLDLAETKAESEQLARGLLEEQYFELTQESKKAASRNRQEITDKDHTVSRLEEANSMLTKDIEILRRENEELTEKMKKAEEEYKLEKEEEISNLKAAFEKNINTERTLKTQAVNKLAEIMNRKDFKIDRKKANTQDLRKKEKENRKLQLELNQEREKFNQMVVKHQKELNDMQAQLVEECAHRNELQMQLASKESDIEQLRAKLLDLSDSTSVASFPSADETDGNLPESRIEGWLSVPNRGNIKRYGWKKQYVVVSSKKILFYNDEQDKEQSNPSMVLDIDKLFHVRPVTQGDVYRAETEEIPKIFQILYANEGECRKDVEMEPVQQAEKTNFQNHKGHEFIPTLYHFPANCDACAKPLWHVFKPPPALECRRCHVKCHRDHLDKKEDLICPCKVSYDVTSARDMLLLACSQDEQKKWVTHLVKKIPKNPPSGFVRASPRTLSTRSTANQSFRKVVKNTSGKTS

5-LO = biological target: T3, 5-LO (Homo sapiens, UniProt P09917); format: biochemical
T3 sequence (P09917 1-674): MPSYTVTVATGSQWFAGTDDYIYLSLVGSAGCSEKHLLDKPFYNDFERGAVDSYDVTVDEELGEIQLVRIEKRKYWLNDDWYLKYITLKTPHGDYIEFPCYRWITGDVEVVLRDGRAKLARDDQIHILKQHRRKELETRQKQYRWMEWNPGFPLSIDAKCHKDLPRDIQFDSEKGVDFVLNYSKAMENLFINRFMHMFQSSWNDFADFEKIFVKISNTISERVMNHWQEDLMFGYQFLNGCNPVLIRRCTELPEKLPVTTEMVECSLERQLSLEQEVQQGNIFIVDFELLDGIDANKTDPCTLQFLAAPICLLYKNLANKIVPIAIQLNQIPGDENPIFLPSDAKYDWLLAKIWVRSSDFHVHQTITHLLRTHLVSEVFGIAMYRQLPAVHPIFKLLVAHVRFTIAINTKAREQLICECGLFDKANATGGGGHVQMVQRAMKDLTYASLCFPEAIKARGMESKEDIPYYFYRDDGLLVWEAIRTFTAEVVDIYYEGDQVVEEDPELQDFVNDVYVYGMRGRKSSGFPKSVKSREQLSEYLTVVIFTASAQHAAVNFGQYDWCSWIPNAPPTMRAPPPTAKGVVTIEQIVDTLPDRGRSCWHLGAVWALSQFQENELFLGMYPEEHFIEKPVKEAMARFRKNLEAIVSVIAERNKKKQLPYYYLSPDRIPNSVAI

FGFR1 = FGFR1 (Homo sapiens, UniProt P11362); assay: ExpresS Diversity Kinase Profile, Cerep (LANCE): FGFR1; format: biochemical
FGFR1, sequence (P11362 22-822): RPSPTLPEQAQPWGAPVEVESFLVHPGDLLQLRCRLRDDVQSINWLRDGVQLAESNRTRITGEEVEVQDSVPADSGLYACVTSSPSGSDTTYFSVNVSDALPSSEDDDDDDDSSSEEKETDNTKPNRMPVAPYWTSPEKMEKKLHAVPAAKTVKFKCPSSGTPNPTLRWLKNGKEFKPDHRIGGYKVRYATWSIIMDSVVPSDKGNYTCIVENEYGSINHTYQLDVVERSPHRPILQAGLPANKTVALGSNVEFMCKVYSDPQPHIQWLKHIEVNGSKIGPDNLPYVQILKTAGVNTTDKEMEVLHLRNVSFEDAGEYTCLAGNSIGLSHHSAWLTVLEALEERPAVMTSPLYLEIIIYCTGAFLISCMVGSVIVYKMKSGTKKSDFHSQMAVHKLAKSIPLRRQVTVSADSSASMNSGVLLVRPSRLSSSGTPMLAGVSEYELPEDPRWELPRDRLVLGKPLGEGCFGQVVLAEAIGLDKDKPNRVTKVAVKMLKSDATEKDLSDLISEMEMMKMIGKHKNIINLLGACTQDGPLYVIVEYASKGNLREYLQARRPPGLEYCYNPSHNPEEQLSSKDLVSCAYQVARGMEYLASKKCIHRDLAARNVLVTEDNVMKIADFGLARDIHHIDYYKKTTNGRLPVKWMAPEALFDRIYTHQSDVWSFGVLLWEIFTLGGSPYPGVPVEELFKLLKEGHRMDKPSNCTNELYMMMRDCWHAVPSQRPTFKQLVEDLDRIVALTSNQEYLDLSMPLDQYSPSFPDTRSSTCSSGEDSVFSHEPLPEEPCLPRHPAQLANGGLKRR

[3] = Flag: Interference, read-out: % Inhibition of control values, 1st measurement
[4] = Flag: Interference, read-out: % Inhibition of control values, 2nd measurement
[5] = n = 2, Flag: Interference, read-out: % Inhibition of control values, Mean
[6] = n = 2, read-out: % of control values, Mean
[7] = read-out: % of control values, 1st measurement
[8] = read-out: % of control values, 2nd measurement

CHK2, sequence (O96017 whole entry): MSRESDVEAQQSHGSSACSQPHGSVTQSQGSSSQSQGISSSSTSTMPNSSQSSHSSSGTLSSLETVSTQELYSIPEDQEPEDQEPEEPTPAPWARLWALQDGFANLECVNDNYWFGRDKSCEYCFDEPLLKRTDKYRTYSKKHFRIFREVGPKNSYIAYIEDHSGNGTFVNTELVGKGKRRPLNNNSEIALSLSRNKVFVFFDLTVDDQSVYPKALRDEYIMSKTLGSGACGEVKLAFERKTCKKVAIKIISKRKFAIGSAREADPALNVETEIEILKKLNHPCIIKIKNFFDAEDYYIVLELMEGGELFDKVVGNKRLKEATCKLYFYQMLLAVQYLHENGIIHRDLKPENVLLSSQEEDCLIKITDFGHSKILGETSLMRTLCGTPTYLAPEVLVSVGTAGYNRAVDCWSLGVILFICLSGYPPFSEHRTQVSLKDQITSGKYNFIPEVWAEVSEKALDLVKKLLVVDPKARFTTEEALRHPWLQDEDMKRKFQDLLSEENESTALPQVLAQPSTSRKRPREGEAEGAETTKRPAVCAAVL
MAPKAPK2, sequence (P49137 whole entry): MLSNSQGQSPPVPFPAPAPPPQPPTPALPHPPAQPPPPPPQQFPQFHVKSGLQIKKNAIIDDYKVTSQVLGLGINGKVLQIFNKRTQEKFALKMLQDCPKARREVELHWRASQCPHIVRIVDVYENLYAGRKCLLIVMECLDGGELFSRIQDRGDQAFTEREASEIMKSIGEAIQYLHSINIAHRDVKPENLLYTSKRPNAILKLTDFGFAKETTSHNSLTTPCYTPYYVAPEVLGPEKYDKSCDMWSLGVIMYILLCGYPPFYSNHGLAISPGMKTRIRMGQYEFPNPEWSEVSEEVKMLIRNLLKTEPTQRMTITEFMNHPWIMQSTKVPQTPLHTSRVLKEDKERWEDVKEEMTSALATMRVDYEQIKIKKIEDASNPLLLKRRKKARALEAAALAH

CC1(C)CCC2=C(O1)c1ccccc1C(=O)C2=O [β-Lapachone]
inhibition at 150 µM (CHK2; [3]): 46.6%
inhibition at 150 µM (CHK2; [4]): 59.5%
inhibition at 150 µM (CHK2; [5]): 53.1%
inhibition at 150 µM (MAPKAPK2; [3]): -14.5%
inhibition at 150 µM (MAPKAPK2; [4]): -2.7%
inhibition at 150 µM (MAPKAPK2; [5]): -8.6%
IC50 (15-LO): > 30000 nM
inhibition at 5 µM (12-LO; 12-LO, 5 µM, read-out: % inhibition of control values, 1st measure): 40.7%
inhibition at 5 µM (12-LO; 12-LO, 5 µM, read-out: % inhibition of control values, 2nd measure): 35.3%
inhibition at 5 µM (12-LO; read-out: % inhibition of control values, Mean): 38%
remaining activity at 150 µM (TRPM8; [6]): -20.4%
remaining activity at 150 µM (TRPM8; [7]): -20.4%
remaining activity at 150 µM (TRPM8; [8]): -20.4%
IC50 (EP4): ~100000 nM
remaining activity at 150 µM (EP4; [7]): 54.6%
remaining activity at 150 µM (EP4; [8]): 51.7%
remaining activity at 150 µM (EP4; read-out: % of control values, Mean): 53.1%
phenotypic effects on Staphylococcus aureus [1]: No phenotypic effects
remaining activity at 150 µM (TRPV1; [6]): -4.6%
remaining activity at 150 µM (TRPV1; [7]): -7.3%
remaining activity at 150 µM (TRPV1; [8]): -1.9%
Count rate (kcps) ([2]; 25 µM in H2O + 0.1% DMSO): 60.7 kcps
Count rate (kcps) ([2]; 50 µM in H2O + 0.1% DMSO): 47.6 kcps
Count rate (kcps) ([2]; 100 µM in H2O + 0.1% DMSO): 136.1 kcps
aggregation by dynamic light scattering ([2]; at relevant concentrations): no aggregation
inhibition at 150 µM (ROCK1; [3]): -12.5%
inhibition at 150 µM (ROCK1; [4]): -3.2%
inhibition at 150 µM (ROCK1; [5]): -7.9%
inhibition of 5-LO at varying arachidonic acid concentrations (5-LO; AA 2.5–40 μM, n = 3): non-competitive inhibition
IC50 (5-LO; IC50 (3 μg mL^–1, PC), competition with phosphatidylcholine 3 μg/mL, n = 3): 100 nM
IC50 (5-LO; IC50 (30 μg mL^–1, PC), competition with phosphatidylcholine 30 μg/mL, n = 3): 1000 nM
IC50 (5-LO; IC50 (with DTT), cell-free, reducing conditions, 1 mM dithiothreitol (DTT), n = 3): 240 nM
IC50 (5-LO; IC50 (without Triton X100), cell-free, plus 1 mM DTT, no Triton X100, n = 3): 120 nM
IC50 (5-LO; cell-free, absence of DTT, n = 3, read-out: IC50 (without DTT)): > 30000 nM
IC50 (5-LO; cell-free, plus 1 mM DTT, 0.01% Triton X100, n = 3, read-out: IC50 (with Triton X100)): 90 nM
5-LO activity upon wash-out (5-LO; wash-out experiment, 10-fold dilution, plus 1 mM DTT): reinstated
inhibition at 150 µM (FGFR1; [3]): 51.5%
inhibition at 150 µM (FGFR1; [4]): 60.5%
inhibition at 150 µM (FGFR1; [5]): 56%
